Reference: publication PMC12006963, “Application of Deuterium in an M1 Positive Allosteric Modulator Back-Up Program: The Discovery of VU6045422” (ACS Chemical Neuroscience, 2025)

Legend:
hM2-5 = test: Muscarinic selectivity, human M2-5 calcium mobilization; type: cell-based
Experimental: Procedures for Biological Experiments
Calcium mobilization assays:
All functional cell-based assays were performed in stable Chinese Hamster Ovary (CHO) cell lines constitutively expressing human M5 or human M1 receptors. For full muscarinic selectivity, CHO cells expressing human M3, human M2 plus Gqi5 or human M4 plus Gqi5 were used. Cells were plated at 15,000 cells per 20 µL per well in black 384-well, TC-treated, clear-bottomed plates (Greiner) in Ham’s F12 medium supplemented with 10% FBS and 20 mM HEPES. Cells were incubated overnight at 37 °C under 5% CO2. […] The compound plate, cell plate, and plates containing EC20 and EC80 acetylcholine concentrations were placed in a Hamamatsu FDSS 6000 or 7000 kinetic imaging plate reader equipped to measure Ex480/Em540 fluorescence. […] After 2 seconds of collecting baseline fluorescence, 20 µL of the compound solutions were added to the cell plate. […] The fluorescence signal was collected for a total of 300 seconds. […] Data were imported and analyzed in Dotmatics Informatics software. by normalizing all data in the individual kinetic traces to the initial fluorescence read. The magnitude of each agonist addition was then determined and normalized to the average maximum response. […] The IC50 determined using the EC80 of acetylcholine is the value reported. […]

recognition memory = test: Novel object recognition (NOR) test; type: in vivo, rat; settings: PO; for minimum effective dose (MED) in NOR: male Sprague-Dawley rats, 3 given 2 h, 5 given 1 h before exposure, memory assessed 24 h later; for effect on recognition memory in NOR: rats, 3 at 1, 3, 10 mg/kg, 5 at 0.3, 1, 3 mg/kg
Experimental: Figure 4 Novel object recognition (NOR) test in rats with M1 PAMs 3 and 5. […] Minimum effective dose (MED) is 10 mg/kg. […] Minimum effective dose (MED) is 1 mg/kg. N = 13–18/group of male Sprague-Dawley rats. Analysis of variance (ANOVA) *p < 0.05; **p < 0.01 Dunnett posthoc test.
Rats were habituated for 10 min for 2 consecutive days in an empty novel object recognition (NOR) arena consisting of dark-colored plexiglass box (40 × 64 × 33 cm3). On day 3 rats were administered vehicle, M1 PAM 3 (1-10 mg/kg, p.o.., 10 mL/kg, n = 13-18), or M 1 PAM 5 (0.3-3 mg/kg, p.o.., 10 mL/kg, n = 16-18) and returned to their home cage for 60 min (M 1 PAM 5) or 2 hr (M1 PAM 3. Rats were then placed in the NOR arena containing two identical objects for 10 min. Following the exposure period, rats were placed back into their home cages for 24 h. The rats were then returned to the arena in which one of the previously exposed (familiar) objects was replaced by a novel object and were video recorded for 5 min while they explored the two objects.
Time spent exploring each object was scored by an observer blinded to the experimental conditions and the recognition index was calculated as [(time spent exploring novel object) – (time spent exploring familiar object)]/total time exploring objects. […]
C18, 2.1 x 30 mm, 2.6 um. Gradient conditions: 7% to 95% CH3CN in H2O (0.1% TFA) over 1.6

[1] = In vivo IV/PO pharmacokinetics, NHP; settings: NHP (cyno), dose iv/po mg/kg: 1 1/3, 5 1/5; for clearance / Vd / half-life: cynomolgus monkey, plasma, 1 mg/kg; for clearance: read-out: CLp; for Vd: read-out: Vss; for half-life: read-out: elimination t1/2 (converted)
[2] = target: bile salt export pump (BSEP) (Homo sapiens, UniProt O95342); test: Bile salt export pump inhibition; type: in vitro ADME
bile salt export pump (BSEP), sequence (O95342 whole entry, species assumed): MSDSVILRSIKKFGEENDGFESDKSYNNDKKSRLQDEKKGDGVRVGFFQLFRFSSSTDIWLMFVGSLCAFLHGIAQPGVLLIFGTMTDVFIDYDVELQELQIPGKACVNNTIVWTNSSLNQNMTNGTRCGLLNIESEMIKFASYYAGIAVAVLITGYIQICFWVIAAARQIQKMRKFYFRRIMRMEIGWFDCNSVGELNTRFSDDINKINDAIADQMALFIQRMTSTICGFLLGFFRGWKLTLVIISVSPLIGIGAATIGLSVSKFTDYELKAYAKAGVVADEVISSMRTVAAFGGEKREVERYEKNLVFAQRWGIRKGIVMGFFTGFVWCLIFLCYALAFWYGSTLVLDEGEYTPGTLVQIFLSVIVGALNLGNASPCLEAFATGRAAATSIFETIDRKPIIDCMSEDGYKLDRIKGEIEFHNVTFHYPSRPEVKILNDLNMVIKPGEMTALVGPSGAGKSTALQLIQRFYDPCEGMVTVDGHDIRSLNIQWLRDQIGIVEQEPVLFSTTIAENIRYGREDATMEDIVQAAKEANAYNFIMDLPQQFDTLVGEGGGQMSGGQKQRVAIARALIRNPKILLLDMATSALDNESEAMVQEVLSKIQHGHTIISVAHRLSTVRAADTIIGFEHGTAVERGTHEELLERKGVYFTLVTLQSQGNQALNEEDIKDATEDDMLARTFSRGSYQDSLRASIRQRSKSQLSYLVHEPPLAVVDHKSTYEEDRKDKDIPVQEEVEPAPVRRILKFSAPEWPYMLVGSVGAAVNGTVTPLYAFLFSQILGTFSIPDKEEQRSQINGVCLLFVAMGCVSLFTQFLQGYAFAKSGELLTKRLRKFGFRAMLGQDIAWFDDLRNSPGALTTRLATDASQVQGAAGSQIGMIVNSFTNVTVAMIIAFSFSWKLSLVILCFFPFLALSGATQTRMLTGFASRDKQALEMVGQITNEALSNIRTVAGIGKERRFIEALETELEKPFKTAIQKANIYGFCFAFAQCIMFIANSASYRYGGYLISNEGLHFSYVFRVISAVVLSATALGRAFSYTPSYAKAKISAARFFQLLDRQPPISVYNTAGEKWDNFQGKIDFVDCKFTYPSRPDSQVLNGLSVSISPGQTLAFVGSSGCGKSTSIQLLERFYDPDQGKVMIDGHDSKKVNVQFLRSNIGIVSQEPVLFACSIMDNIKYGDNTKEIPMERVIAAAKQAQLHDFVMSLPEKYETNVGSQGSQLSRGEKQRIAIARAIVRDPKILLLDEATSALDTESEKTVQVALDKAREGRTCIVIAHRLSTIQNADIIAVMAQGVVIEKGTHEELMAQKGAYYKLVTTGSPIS

[3] = Rat 14-day exploratory toxicology and toxicokinetic study; type: in vivo; settings: rat 14-day study, plasma
Source text: To this end, we prepared a 200 g lot of PAM 5 and performed, in parallel, a dog maximum tolerated dose (MTD) with a pharmacokinetics study and a 14-day rat exploratory toxicology and toxicokinetic study, quantifying plasma Cmax and AUC for both parent 5 and metabolite 6. […] Moreover, while exposure increased with dose, it was nonlinear. […] The series was terminated based on (1) poor and less than dose-proportional increases in systemic exposure, (2) lack of a kinetic isotope effect to diminish production of 6 in dogs and rats, and (3) strong likelihood of even higher concentrations of 6 to be present in man.

Adrenergic α1D = Adrenergic α1D (Homo sapiens, UniProt P25100); test: Eurofins radioligand binding
Adrenergic α1D, sequence (P25100 whole entry): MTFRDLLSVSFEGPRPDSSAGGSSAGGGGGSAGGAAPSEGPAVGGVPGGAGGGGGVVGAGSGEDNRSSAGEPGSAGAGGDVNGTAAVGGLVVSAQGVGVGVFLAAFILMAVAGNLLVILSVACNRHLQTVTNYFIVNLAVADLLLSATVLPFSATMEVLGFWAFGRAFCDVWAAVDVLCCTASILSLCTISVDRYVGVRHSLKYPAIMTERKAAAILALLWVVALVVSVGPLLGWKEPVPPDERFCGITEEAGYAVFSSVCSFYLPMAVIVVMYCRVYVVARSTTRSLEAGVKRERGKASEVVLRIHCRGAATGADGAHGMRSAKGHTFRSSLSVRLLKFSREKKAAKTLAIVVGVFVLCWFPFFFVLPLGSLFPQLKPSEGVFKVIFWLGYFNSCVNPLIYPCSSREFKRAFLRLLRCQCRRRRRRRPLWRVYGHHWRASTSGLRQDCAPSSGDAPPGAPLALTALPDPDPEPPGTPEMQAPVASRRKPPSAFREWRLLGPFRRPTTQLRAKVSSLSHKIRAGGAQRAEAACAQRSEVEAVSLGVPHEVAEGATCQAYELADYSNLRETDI

Adrenergic α2A = Adrenergic α2A (Homo sapiens, UniProt P08913); test: Eurofins radioligand binding
Adrenergic α2A, sequence (P08913 whole entry): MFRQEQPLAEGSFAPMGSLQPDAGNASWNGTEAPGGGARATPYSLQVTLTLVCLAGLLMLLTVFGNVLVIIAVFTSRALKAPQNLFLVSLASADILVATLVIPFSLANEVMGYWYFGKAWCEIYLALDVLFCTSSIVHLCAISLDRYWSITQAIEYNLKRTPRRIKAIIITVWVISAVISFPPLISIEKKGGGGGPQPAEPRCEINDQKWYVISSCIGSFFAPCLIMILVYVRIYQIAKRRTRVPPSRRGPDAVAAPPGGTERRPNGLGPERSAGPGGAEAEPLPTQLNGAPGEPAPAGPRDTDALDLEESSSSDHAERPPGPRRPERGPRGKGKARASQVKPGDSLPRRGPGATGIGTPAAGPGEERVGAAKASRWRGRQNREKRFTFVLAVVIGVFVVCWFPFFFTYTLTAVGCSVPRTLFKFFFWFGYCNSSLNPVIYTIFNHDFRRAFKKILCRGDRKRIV

Adrenergic β2 = Adrenergic β2 (Homo sapiens, UniProt P07550); test: Eurofins radioligand binding
Adrenergic β2, sequence (P07550 whole entry): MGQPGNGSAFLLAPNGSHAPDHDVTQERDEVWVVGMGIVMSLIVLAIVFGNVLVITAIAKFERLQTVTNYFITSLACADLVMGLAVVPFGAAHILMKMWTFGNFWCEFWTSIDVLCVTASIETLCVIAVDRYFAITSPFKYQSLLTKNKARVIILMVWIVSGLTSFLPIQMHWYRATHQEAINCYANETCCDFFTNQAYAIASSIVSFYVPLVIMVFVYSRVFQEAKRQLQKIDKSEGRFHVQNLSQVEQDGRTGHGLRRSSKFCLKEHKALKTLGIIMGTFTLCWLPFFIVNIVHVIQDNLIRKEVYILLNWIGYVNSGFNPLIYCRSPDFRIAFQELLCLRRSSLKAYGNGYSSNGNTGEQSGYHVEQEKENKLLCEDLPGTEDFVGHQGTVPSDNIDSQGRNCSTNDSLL

Bradykinin B1 = Bradykinin B1 (Homo sapiens, UniProt P46663); test: Eurofins radioligand binding
Bradykinin B1, sequence (P46663 whole entry): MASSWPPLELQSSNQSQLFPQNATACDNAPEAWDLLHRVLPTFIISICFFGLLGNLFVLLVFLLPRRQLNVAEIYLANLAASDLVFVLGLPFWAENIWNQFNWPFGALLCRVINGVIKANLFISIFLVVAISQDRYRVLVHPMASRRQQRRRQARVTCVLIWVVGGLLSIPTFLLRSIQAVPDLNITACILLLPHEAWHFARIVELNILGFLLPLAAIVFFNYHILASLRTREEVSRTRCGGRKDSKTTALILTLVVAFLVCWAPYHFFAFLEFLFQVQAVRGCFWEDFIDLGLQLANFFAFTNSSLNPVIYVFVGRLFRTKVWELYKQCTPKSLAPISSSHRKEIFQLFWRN

[4] = tested on: Calcium Channel L-Type, Benzothiazepine; test: Eurofins radioligand binding; parameters: species or system Rat
Glucocorticoid = Glucocorticoid (Homo sapiens, UniProt P04150); test: Eurofins radioligand binding
Glucocorticoid, sequence (P04150 whole entry): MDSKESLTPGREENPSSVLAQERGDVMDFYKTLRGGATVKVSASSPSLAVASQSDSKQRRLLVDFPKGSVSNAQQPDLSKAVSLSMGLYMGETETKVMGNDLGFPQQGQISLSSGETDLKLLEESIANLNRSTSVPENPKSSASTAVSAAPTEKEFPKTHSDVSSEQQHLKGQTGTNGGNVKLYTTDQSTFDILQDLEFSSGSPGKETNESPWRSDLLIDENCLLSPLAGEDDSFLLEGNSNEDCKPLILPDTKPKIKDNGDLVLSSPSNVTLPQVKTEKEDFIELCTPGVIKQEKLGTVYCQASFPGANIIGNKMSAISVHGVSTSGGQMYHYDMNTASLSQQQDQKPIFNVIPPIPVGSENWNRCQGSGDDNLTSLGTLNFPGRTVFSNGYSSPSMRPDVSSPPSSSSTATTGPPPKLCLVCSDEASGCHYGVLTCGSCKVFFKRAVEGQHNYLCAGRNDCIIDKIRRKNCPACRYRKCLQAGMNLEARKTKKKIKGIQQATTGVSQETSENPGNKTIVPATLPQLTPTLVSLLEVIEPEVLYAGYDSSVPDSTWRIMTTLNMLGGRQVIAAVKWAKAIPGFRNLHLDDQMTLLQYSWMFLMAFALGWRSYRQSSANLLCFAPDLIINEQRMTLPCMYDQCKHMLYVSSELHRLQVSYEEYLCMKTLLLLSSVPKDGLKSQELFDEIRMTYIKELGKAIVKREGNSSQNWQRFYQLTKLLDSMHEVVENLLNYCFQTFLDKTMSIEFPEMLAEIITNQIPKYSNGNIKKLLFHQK

Purinergic P2X = test: Eurofins radioligand binding; parameters: species or system Rat
Sigma σ1 = Sigma σ1 (Homo sapiens, UniProt Q99720); test: Eurofins radioligand binding
Sigma σ1, sequence (Q99720 whole entry): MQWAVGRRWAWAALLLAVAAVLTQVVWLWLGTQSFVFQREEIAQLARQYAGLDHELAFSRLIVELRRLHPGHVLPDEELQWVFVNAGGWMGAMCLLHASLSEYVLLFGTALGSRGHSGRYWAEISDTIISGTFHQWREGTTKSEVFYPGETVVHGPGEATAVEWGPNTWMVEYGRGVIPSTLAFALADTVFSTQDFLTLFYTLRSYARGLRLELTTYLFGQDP

Thyroid Hormone = test: Eurofins radioligand binding; parameters: species or system Rat
CYP 3A4 = CYP 3A4 (Homo sapiens, UniProt P08684); parameters: method as in PMID 39660766; settings: in words; cited from earlier work
CYP 3A4, sequence (P08684 whole entry): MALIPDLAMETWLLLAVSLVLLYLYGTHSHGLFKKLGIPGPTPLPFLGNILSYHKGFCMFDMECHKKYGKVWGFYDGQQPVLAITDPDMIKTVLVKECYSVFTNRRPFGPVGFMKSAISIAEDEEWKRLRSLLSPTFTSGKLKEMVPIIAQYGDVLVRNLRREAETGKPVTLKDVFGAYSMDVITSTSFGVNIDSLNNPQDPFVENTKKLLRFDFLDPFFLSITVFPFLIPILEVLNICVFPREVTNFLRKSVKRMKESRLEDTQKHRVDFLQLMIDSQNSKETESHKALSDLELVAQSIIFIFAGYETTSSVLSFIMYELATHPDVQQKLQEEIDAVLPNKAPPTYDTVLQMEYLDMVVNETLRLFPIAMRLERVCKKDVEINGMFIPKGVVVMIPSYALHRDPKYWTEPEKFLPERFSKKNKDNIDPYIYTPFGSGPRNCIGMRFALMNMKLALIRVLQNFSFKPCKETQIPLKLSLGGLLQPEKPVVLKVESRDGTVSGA

In the case of `[2H]C1([2H])c2ncccc2C(=O)N1Cc1c(F)cc(-c2cccc3nn(C)cc23)cc1F` [compound 3], the EC50 (hM2-5) is reported as over 30 µM, the “minimum effective dose (MED) in NOR” value (recognition memory) is reported as 10 mg/kg and the “effect on recognition memory in NOR” value (recognition memory) is reported as “dose-dependently enhanced the recognition memory”.
For `[2H]C1([2H])c2ncccc2C(=O)N1Cc1c(F)cc(-c2cccc3nn(C([2H])([2H])[2H])cc23)cc1F` [compound 5], the EC50 (hM2-5) was over 30 µM, the “F (%) po” value [1] was 64% and the clearance [1] was 4 mL/min/kg. The Vd [1] was 1.1 L/kg, the half-life [1] was 4.6 h and the “minimum effective dose (MED) in NOR” value (recognition memory) was 1 mg/kg. The “effect on recognition memory in NOR” value (recognition memory) was “dose-dependently enhanced recognition memory”, the IC50 [2] was 42.3 µM and the AUC at 14 days ([3]; day 14, 300 mg/kg PO of 5) was 321 µg·h/mL. It also gave a Cmax at 14 days ([3]; day 14, 300 mg/kg PO of 5) of 22200 ng/mL, an AUC at 14 days ([3]; day 14, 750 mg/kg PO of 5) of 536 µg·h/mL and a Cmax at 14 days ([3]; day 14, 750 mg/kg PO of 5) of 31300 ng/mL. For the same molecule, the AUC at 14 day ([3]; day 14, 1500 mg/kg PO of 5) was 518 µg·h/mL, the Cmax at 14 days ([3]; day 14, 1500 mg/kg PO of 5) was 30700 ng/mL and the inhibition at 10 µM (Adrenergic α1D) was -15%. The inhibition at 10 µM (Adrenergic α2A) was 58%, the inhibition at 10 µM (Adrenergic β2) was -1% and the inhibition at 10 µM (Bradykinin B1) was 13%. For the same molecule, the “% Inhibition at 10 µM” value [4] was 15%, the inhibition at 10 µM (Glucocorticoid) was 13% and the “% Inhibition at 10 µM” value (Purinergic P2X) was 4%. For the same molecule, the inhibition at 10 µM (Sigma σ1) was 11% and the “% Inhibition at 10 µM” value (Thyroid Hormone) was 0%.
For `Cn1cc2c(-c3cc(F)c(CN4Cc5ncccc5C4=O)c(F)c3)cccc2n1` [compound 1], the “F (%) po” value [1] was 59%, the clearance [1] was 3.3 mL/min/kg and the Vd [1] was 0.9 L/kg. For the same molecule, the half-life [1] was 4.3 h and the “CYP isoform responsible for metabolism” value (CYP 3A4) was “solely metabolized by CYP 3A4”.
